# From article PMC8901439 (Molecular Cell, 2022)
# How the values were obtained:
# Type in all cases: biochemical
# [1] = biological target: T1, Dnmt1 (Mus musculus, UniProt P13864, N1580A); test: single-turnover methylation kinetics on hemimethylated 25-mer DNA
# [2] = biological target: T2, Dnmt1 (Mus musculus, UniProt P13864, R1576A/N1580A); test: as above
# [3] = biological target: Dnmt1 (Mus musculus, UniProt P13864); test: as above
# [4] = biological target: T2, Dnmt1; test: single-turnover azidoalkylation kinetics on hemimethylated 25-mer DNA
# [5] = biological target: T1, Dnmt1; test: as above
# T1 sequence (P13864 291-1620 N1580A): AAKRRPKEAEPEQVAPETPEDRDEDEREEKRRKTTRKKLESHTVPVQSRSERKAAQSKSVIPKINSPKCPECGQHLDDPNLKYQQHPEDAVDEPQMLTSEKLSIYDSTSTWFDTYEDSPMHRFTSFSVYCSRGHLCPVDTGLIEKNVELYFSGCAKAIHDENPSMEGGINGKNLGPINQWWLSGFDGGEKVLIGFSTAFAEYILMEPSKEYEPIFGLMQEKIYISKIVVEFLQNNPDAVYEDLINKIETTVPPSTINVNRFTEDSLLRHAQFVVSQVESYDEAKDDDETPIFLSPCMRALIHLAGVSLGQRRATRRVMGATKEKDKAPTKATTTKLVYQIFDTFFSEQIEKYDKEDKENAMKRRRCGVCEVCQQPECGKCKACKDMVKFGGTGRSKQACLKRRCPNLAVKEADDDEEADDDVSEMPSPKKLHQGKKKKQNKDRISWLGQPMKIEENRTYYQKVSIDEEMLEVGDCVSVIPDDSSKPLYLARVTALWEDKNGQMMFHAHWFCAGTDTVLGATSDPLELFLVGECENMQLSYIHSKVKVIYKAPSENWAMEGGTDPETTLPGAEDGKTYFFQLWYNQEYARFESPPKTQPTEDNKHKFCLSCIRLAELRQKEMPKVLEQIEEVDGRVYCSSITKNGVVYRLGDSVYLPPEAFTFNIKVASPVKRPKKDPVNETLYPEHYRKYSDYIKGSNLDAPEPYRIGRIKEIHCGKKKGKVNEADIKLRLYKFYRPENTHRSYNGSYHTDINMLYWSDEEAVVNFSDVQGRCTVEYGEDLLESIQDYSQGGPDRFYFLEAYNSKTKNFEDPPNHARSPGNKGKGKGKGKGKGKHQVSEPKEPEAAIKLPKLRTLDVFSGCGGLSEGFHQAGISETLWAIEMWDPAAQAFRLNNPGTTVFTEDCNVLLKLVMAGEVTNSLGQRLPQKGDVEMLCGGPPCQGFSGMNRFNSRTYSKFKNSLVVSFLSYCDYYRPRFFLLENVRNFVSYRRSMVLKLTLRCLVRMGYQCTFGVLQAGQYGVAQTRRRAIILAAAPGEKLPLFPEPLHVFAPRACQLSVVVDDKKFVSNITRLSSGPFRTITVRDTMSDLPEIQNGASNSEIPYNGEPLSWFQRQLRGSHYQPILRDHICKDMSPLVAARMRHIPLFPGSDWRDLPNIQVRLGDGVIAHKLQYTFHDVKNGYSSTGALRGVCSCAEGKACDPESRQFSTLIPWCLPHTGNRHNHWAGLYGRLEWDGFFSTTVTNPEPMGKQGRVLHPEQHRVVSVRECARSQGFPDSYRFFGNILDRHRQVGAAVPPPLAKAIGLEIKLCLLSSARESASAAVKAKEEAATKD
# T2 sequence (P13864 291-1620 R1576A/N1580A): as the sequence (P13864 291-1620 N1580A) above, with R1286A counted along it
# Chain of Dnmt1 (Mus musculus, UniProt P13864) (P13864 291-1620): as the sequence (P13864 291-1620 N1580A) above, with A1290N counted along it
SMILES,kchem^AdoMet methylation / min^-1 [1],kchem^AdoMet methylation / min^-1 [2],kchem^AdoMet methylation / min^-1 [3],kchem^Ado-6-azide azidoalkylation / min^-1 [4],kchem^Ado-6-azide azidoalkylation / min^-1 [5]
C[S+](CC[C@H](N)C(=O)[O-])C[C@H]1O[C@@H](n2cnc3c(N)ncnc32)[C@H](O)[C@@H]1O (some centres unmarked) [AdoMet],0.104 ± 0.002 min⁻¹,0.035 ± 0.002 min⁻¹,3.0 ± 0.13 min⁻¹,–,–
[N-]=[N+]=NCCCC#CC[S+](CC[C@H](N)C(=O)O)C[C@H]1O[C@@H](n2cnc3c(N)ncnc32)[C@H](O)[C@@H]1O (mixture of isomers) [Ado-6-azide],–,–,–,0.27 ± 0.025 min⁻¹,1.4 ± 0.13 min⁻¹
